Experimental data reported in patent publication US10052320B2, “Substituted quinoxalines as FGFR kinase inhibitors” (ASTEX THERAPEUTICS LIMITED, priority 2011, dated 2018).

Tests used:
Type in all cases: cell-based
[1] = target: Ba/F3-FGFR3-transfected cells (Homo sapiens, UniProt P22607); assay: Ba/F3-FGFR3 (minus IL3) cellular proliferation assay, Alamar Blue; settings: for BAF3-FGFR 3 (MIN IL3) 96 well pIC50: minus IL3, 96 well; for BAF3-FGFR 3 (MIN IL3) 384 well pIC50: minus IL3, 384 well
Summary of the method: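 Cells are seeded with compound dilutions, incubated 24 h at 37 °C under 5% CO2, then given resazurin-based Alamar Blue for a further 4 h before fluorescence is measured. The plus-IL3 counterscreen repeats this with 10 ng/ml murine IL3.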

[2] = target: T1, Ba/F3-Flt3-transfected cells (Homo sapiens, UniProt P36888, cells depend on it, form not given); assay: Ba/F3-Flt3 (minus IL3) cellular proliferation assay, Alamar Blue; settings: minus IL3
T1 sequence (P36888 1-993): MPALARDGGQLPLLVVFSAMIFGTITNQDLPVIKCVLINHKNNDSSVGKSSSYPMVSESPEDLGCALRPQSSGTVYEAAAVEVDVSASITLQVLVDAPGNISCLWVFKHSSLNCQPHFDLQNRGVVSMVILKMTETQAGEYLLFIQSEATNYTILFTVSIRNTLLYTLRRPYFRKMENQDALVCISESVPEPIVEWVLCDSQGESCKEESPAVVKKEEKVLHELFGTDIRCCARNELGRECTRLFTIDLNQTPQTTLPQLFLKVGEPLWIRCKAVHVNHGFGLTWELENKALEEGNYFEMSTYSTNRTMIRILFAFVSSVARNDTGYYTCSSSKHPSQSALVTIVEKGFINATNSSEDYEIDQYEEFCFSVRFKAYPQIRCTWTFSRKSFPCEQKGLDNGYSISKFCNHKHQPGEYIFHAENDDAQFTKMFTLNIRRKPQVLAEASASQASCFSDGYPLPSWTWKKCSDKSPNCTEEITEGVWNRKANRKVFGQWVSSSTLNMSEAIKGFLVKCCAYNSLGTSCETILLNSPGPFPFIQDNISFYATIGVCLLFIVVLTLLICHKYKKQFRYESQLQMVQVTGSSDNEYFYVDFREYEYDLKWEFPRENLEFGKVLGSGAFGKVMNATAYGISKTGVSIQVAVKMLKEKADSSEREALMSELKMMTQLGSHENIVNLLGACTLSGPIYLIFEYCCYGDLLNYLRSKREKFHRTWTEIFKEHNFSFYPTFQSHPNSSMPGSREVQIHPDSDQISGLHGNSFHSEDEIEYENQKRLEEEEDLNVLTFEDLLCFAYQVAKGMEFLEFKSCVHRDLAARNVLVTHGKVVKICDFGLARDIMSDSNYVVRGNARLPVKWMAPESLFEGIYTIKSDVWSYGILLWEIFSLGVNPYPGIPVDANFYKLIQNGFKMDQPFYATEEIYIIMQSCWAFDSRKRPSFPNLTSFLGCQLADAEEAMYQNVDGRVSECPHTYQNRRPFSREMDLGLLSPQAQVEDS

[3] = target: Ba/F3-FGFR4-transfected cells (Homo sapiens, UniProt P22455); assay: Ba/F3-FGFR4 cellular proliferation assay, Alamar Blue
Summary of the method: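 Alamar Blue fluorescence (540/590 nm, 4 h development) measured growth of FGFR4-transfected Ba/F3 cells after 24 h compound treatment at 37° C. Cells were seeded at 20000/well in RPMI-1640, 10% FBS.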

Sequence of Ba/F3-FGFR4-transfected cells (P22455 whole entry, change not shown): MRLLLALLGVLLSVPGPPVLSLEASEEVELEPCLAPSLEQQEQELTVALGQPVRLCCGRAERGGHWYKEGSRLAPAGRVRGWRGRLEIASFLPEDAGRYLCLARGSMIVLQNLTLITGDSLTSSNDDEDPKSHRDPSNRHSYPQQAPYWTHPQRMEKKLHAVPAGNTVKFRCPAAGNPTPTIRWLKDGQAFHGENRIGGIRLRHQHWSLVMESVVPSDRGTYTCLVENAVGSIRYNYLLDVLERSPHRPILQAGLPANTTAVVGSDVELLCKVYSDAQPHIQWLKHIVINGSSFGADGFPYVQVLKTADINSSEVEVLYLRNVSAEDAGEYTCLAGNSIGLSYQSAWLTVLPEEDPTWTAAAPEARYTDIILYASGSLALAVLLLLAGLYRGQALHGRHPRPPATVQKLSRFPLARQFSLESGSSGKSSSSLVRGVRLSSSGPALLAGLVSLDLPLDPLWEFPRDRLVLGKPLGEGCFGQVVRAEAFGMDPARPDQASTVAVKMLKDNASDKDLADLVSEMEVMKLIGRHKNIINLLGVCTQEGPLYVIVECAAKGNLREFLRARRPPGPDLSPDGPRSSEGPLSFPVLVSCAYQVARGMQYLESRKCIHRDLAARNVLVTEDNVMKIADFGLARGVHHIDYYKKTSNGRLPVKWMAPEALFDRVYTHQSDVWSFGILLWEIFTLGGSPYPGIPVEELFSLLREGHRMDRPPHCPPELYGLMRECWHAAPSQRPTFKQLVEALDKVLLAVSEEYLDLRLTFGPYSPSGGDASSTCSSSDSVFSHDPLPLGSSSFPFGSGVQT
Sequence of Ba/F3-FGFR3-transfected cells (P22607 whole entry, change not shown): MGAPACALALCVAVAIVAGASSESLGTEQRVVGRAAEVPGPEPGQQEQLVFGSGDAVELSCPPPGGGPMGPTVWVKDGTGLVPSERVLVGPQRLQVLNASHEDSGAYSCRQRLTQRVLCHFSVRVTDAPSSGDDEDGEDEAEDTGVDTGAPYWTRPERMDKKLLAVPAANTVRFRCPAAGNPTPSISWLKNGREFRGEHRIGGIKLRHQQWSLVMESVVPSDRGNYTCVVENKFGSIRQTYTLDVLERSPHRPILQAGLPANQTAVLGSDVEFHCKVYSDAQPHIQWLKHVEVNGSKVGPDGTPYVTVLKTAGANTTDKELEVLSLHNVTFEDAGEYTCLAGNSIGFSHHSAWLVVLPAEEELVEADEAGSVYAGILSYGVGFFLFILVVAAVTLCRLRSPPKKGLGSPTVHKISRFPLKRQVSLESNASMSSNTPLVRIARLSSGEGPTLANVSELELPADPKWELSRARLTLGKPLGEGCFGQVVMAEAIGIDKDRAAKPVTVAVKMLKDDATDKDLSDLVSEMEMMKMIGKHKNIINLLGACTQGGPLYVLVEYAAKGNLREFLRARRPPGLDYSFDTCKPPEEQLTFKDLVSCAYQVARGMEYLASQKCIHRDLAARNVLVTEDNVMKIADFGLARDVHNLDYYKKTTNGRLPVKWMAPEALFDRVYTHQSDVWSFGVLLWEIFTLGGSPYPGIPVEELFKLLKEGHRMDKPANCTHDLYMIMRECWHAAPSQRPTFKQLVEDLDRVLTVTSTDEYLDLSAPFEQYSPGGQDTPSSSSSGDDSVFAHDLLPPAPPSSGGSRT

Row | Structure (SMILES) | BAF3-FGFR 3 (MIN IL3) 96 well pIC50 [1] | BAF3-FGFR 3 (MIN IL3) 384 well pIC50 [1] | BAF3-FLT3 (MIN IL3) 96 well pIC50 [2] | BAF3-FLT3 (MIN IL3) 384 well pIC50 [2] | BAF3-FGFR4 pIC50 [3]
1 | COc1cc(OC)cc(N(CC2CC2)c2ccc3ncc(Nc4nccs4)nc3c2)c1 [Compound 98] | <5 | <5 | <5 | <5 | <5
2 | COc1cc(OC)cc(N(CC2CC2)c2ccc3ncc(C(=O)NCc4ccc(F)cc4)nc3c2)c1 [Compound 101] | <5 | <5 | <5 | <5 | <5
3 | COc1cc(OC)cc(N(CC2CC2)c2ccc3ncc(Nc4nncs4)nc3c2)c1 [Compound 102] | <5 | <5 | ~5 | <5 | <5
4 | COc1cc(OC)cc(N(CC2CC2)c2ccc3ncc(-c4cccn4C)nc3c2)c1 [Compound 103] | <5 | <5 | 5.17 | <5 | <5
5 | COc1cc(OC)cc(N(CC2CC2)c2ccc3ncc(-c4ocnc4C)nc3c2)c1 [Compound 104] |  | <5 |  | <5 | <5
6 | COc1cc(OC)cc(N(CC2CC2)c2ccc3ncc(-n4cnc(CO)c4)nc3c2)c1 [Compound 105] |  | 5.53 |  | <5 | 5.53
7 | COc1cc(OC)cc(N(CCO)c2ccc3ncc(-c4ccc(N)nc4)nc3c2)c1 [Compound 106] |  | ~6.54 |  | <5.025 | 6.3
8 | CNC(=O)c1cc(-c2cnc3ccc(N(CCN4CCCC4CO)c4cc(OC)cc(OC)c4)cc3n2)ccn1 (centres unmarked) [Compound 109] |  | ~6.77 |  | <5 | 6.2
9 | COc1cc(OC)cc(N(CC2CO2)c2ccc3ncc(-c4ccc(N)nc4)nc3c2)c1 (centres unmarked) [Compound 110] |  | 6.81 |  | 5.04 | 6.2
10 | COc1cc(OC)cc(N(CCO)c2ccc3ncc(-c4ccc(OC)nc4)nc3c2)c1 [Compound 111] |  | ~6.17 |  | <5 | 5.9
11 | CNC(=O)c1cc(-c2cnc3ccc(N(CCNCC(F)(F)F)c4cc(OC)cc(OC)c4)cc3n2)ccn1 [Compound 113] |  | ~5.63 |  | <5 | 5.5
12 | CNc1ccc(-c2cnc3ccc(N(CCCO)c4cc(OC)cc(OC)c4)cc3n2)cn1 [Compound 116] |  | 6.59 |  | <5 | 6.4
13 | COc1cc(OC)cc(N(CCO)c2ccc3ncc(-c4ccccc4)nc3c2)c1 [Compound 120] |  | ~6.09 |  | <5 | 6.0
14 | COc1cc(OC)cc(N(CCNC(C)C)c2ccc3ncc(-c4ccccc4)nc3c2)c1 [Compound 121] |  | 6.42 |  | ~5.34 | 6.4
15 | CNC(=O)c1cc(-c2cnc3ccc(N(CCCNCC(F)(F)F)c4cc(OC)cc(OC)c4)cc3n2)ccn1 [Compound 122] |  | 5.49 |  | <5 | ~5.1
